Test results published in ChEMBL document CHEMBL4673359, “Molecular docking and synthesis of caffeic acid analogous and its anti-inflammatory, analgesic and ulcerogenic studies” (Bioorg Med Chem Lett, 2021).

Assays:
Rattus norvegicus [1] = test: Anti-inflammatory activity in Wistar rat assessed as inhibition of carrageenan-induced paw edema at 20 mg/kg, po administered 1 hr prior to carrageenan stimulation and measured after 3 hrs by plethysmometric method relative to control; assay type: functional; parameters: scale not given: the % may be the effect or the level left; conditions: time 4 hrs
[2] = Acute toxicity in Swiss albino mouse assessed as survival at 200 mg/kg, po administered for 7 days and observed for 14 days; assay type: organism-based; conditions: in vivo, 336 h, time 14 day
[3] = target: T1, Prostaglandin G/H synthase 2 (Homo sapiens, UniProt P35354); test: Inhibition of COX-2 (unknown origin) assessed as reduction in PGH2 formation using arachidonic acid as substrate preincubated for 5 mins followed by substrate addition and measured after 2 mins by enzyme immunoassay
T1 sequence (P35354 whole entry): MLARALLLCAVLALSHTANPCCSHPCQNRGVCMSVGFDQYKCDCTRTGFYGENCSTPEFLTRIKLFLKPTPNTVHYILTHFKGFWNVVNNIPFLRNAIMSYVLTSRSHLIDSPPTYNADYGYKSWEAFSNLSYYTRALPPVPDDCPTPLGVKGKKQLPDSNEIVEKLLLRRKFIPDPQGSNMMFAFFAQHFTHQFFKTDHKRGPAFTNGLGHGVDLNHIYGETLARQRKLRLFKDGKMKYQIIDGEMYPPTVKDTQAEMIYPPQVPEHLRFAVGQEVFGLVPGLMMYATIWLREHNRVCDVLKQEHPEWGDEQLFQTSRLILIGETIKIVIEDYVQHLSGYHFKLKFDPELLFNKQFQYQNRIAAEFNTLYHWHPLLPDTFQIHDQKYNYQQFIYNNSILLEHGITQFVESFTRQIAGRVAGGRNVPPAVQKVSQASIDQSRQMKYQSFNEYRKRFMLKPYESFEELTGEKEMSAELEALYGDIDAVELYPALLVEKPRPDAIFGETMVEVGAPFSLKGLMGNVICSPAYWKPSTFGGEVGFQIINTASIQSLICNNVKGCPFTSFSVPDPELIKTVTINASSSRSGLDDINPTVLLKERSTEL

[4] = Acute toxicity in Swiss albino mouse assessed as behavioral changes at 100 mg/kg, po administered for 7 days and observed for 14 days; assay type: organism-based; conditions: in vivo, 336 h, time 14 day
[5] = Acute toxicity in Wistar rat assessed as survival at 200 mg/kg, po administered for 7 days and observed for 14 days; assay type: organism-based; conditions: in vivo, 336 h, time 14 day
Rattus norvegicus [6] = test: Anti-inflammatory activity in Wistar rat assessed as inhibition of carrageenan-induced paw edema at 20 mg/kg, po administered 1 hr prior to carrageenan stimulation and measured after 4 hrs by plethysmometric method relative to control; assay type: functional; parameters: scale not given: the % may be the effect or the level left; conditions: time 5 hrs
[7] = Acute toxicity in Wistar rat assessed as behavioral changes at 200 mg/kg, po administered for 7 days and observed for 14 days; assay type: organism-based; conditions: in vivo, 336 h, time 14 day
Mus musculus = test: Analgesic activity in Swiss albino mouse assessed as inhibition of acetic acid-induced writhing at 20 mg/kg, po administered 30 mins prior to acetic acid treatment and measured for 20 mins; assay type: functional; parameters: scale not given: the % may be the effect or the level left; conditions: time 50 min
[8] = Acute toxicity in Swiss albino mouse assessed as behavioral changes at 200 mg/kg, po administered for 7 days and observed for 14 days; assay type: organism-based; conditions: in vivo, 336 h, time 14 day
[9] = Acute toxicity in Swiss albino mouse assessed as survival at 100 mg/kg, po administered for 7 days and observed for 14 days; assay type: organism-based; conditions: in vivo, 336 h, time 14 day
[10] = target: Prostaglandin G/H synthase 1 (Homo sapiens, UniProt P23219); test: Inhibition of COX-1 (unknown origin) assessed as reduction in PGH2 formation using arachidonic acid as substrate preincubated for 5 mins followed by substrate addition and measured after 2 mins by enzyme immunoassay
Chain of Prostaglandin G/H synthase 1 (P23219 whole entry): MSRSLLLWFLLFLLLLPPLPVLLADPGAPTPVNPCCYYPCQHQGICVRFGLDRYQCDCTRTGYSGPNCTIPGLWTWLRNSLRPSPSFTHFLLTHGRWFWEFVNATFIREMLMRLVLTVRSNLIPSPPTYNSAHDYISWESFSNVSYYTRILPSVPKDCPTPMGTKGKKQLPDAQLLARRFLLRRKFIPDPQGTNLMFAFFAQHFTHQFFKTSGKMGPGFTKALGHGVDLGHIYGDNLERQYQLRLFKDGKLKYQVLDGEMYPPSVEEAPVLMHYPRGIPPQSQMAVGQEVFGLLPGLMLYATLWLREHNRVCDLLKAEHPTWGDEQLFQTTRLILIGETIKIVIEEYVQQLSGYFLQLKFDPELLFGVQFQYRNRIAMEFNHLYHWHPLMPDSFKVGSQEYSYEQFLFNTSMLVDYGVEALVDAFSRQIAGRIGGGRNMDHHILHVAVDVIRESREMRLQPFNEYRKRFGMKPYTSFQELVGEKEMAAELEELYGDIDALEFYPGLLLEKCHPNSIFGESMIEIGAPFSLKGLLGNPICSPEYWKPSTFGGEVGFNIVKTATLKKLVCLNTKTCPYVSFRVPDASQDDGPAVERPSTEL

[11] = Ulcerogenic activity in Wistar rat assessed as incidence of gastric ulceration by measuring severity index at 60 mg/kg, po measured after 17 hrs by microscopic analysis; assay type: toxicity, organism-based; conditions: in vivo
[12] = Acute toxicity in Wistar rat assessed as survival at 100 mg/kg, po administered for 7 days and observed for 14 days; assay type: organism-based; conditions: in vivo, 336 h, time 14 day
[13] = Acute toxicity in Wistar rat assessed as behavioral changes at 100 mg/kg, po administered for 7 days and observed for 14 days; assay type: organism-based; conditions: in vivo, 336 h, time 14 day

Structure (SMILES)	Activity (Rattus norvegicus [1])	Activity [2]	IC50 [3]	Activity [4]	Activity [5]	Activity (Rattus norvegicus [6])	Activity [7]	Activity (Mus musculus)	Activity [8]	Activity [9]	IC50 [10]	Activity_index [11]	Activity [12]	Activity [13]
O=C(/C=C/c1ccc(O)c(O)c1)NNC(=O)COc1cccnc1	63.96%	Non-Toxic	5 µM	Non-Toxic	Non-Toxic	60.82%	Non-Toxic	53.41%	Non-Toxic	Non-Toxic	182 µM	0.4	Non-Toxic	Non-Toxic
O=C(/C=C/c1ccc(O)c(O)c1)NNC(=O)COc1ccc2ccccc2c1	51.61%	Non-Toxic	–	Non-Toxic	Non-Toxic	48.7%	Non-Toxic	65.1%	Non-Toxic	Non-Toxic	–	0.57	Non-Toxic	Non-Toxic
O=C(/C=C/c1ccc(O)c(O)c1)NNC(=O)COc1cccc2cccnc12	66.61%	Non-Toxic	4.9 µM	Non-Toxic	Non-Toxic	61.47%	Non-Toxic	57.3%	Non-Toxic	Non-Toxic	126 µM	0.53	Non-Toxic	Non-Toxic
Cc1ccc(OCC(=O)NNC(=O)/C=C/c2ccc(O)c(O)c2)cc1	58.71%	Non-Toxic	–	Non-Toxic	Non-Toxic	55.53%	Non-Toxic	64.68%	Non-Toxic	Non-Toxic	–	0.38	Non-Toxic	Non-Toxic
O=C(/C=C/c1ccc(O)c(O)c1)NNC(=O)COc1ccc(Cl)cc1	75.17%	Non-Toxic	3.17 µM	Non-Toxic	Non-Toxic	72.29%	Non-Toxic	67.85%	Non-Toxic	Non-Toxic	214 µM	0.76	Non-Toxic	Non-Toxic
Cc1ccc(OCC(=O)NNC(=O)/C=C/c2ccc(O)c(O)c2)c(C)c1	67.18%	Non-Toxic	2.1 µM	Non-Toxic	Non-Toxic	64.45%	Non-Toxic	45.21%	Non-Toxic	Non-Toxic	107 µM	0.26	Non-Toxic	Non-Toxic
O=C(/C=C/c1ccc(O)c(O)c1)NNC(=O)COc1ccc(Br)cc1	74.9%	Non-Toxic	3.4 µM	Non-Toxic	Non-Toxic	71.15%	Non-Toxic	71.35%	Non-Toxic	Non-Toxic	233 µM	0.78	Non-Toxic	Non-Toxic
O=C(/C=C/c1ccc(O)c(O)c1)NNC(=O)COc1cccc2ccccc12	49.96%	Non-Toxic	–	Non-Toxic	Non-Toxic	44.45%	Non-Toxic	50.7%	Non-Toxic	Non-Toxic	–	0.46	Non-Toxic	Non-Toxic
Cc1ccc2cccc(OCC(=O)NNC(=O)/C=C/c3ccc(O)c(O)c3)c2n1	57.19%	Non-Toxic	–	Non-Toxic	Non-Toxic	53.15%	Non-Toxic	49.02%	Non-Toxic	Non-Toxic	–	0.57	Non-Toxic	Non-Toxic
Cc1ccccc1OCC(=O)NNC(=O)/C=C/c1ccc(O)c(O)c1	54.96%	Non-Toxic	–	Non-Toxic	Non-Toxic	49.83%	Non-Toxic	49.18%	Non-Toxic	Non-Toxic	–	0.58	Non-Toxic	Non-Toxic
Cc1ccc(-c2cc(C(F)(F)F)nn2-c2ccc(S(N)(=O)=O)cc2)cc1 [CELECOXIB]	78%	–	–	–	–	74.56%	–	73.53%	–	–	–	–	–	–
